From ChEMBL document CHEMBL1131496, “Excitatory amino acid receptor ligands: resolution, absolute stereochemistry, and enantiopharmacology of 2-amino-3-(4-butyl-3-hydroxyisoxazol-5-yl)propionic acid” (J Med Chem, 1998) come the findings set out here.

The structures appear in SMILES notation. Where only a bound is given, the exact number is not on record here.

A word on the ED50: it is the dose at which the effect has come halfway, by size or by number of responders. In general, IC50 refers to the concentration at which inhibition is half-maximal. Read a high IC50 as weaker potency in that assay. Broadly, the EC50 is the concentration needed to bring the measured effect to its halfway point.

Assay [1] relates to Mus musculus. The experiment in a line: In vivo convulsant activity were tested in mice after intravenous administration.
Assay [2] can be described thus: In vitro binding affinity against Metabotropic glutamate receptor using [3H](S)-glutamic acid. Set-up: species or system Mus musculus.
The next assay is filed under the species Rattus norvegicus. In words: Compound was tested for electrophysiological experiments using rat cortical wedge preparation. Format: functional.
Assay [3] addresses Glutamate receptor ionotropic, AMPA (Mus musculus, UniProt P23818+P23819+Q9Z2W8+Q9Z2W9).
Description: Compound was tested for in vitro binding affinity against Ionotropic glutamate receptor AMPA using [3H]AMPA ligand
The test system of assay [4] is Mus musculus. The experiment in a line: In vivo convulsant activity were tested in mice after subcutaneous administration. Conditions: sc. In kind it is functional.

Take `Cc1onc(O)c1CC(N)C(=O)O` [(R,S)-AMPA]: the 50% effect level with Mus musculus [1] (ED50) was put at a dose of 55 µmol/kg. In assay [2], this molecule returned an IC50 greater than 100000 nM.
Turning to `N[C@@H](Cn1oc(=O)[nH]c1=O)C(=O)O` [QUISQUALATE], the IC50 in assay [2] is 25 nM. Further, the response in the assay listed under Rattus norvegicus was half-maximal at 7.3 µM (EC50).
Regarding `N[C@H](Cc1onc(O)c1Br)C(=O)O`, the IC50 in assay [2] came to 150 nM; in assay [3], 32 µM. Also, the EC50 in the assay listed under Rattus norvegicus was greater than 1000 µM.
`CCCCc1c(O)noc1C[C@@H](N)C(=O)O` had an ED50 with Mus musculus [1] greater than 350 µmol/kg. The IC50 in assay [2] is 570 nM; in assay [3], greater than 1000 µM. The molecule also had an EC50 in the assay filed under Rattus norvegicus greater than 1000 µM.
As for `N[C@@H](Cc1onc(O)c1Br)C(=O)O`, the IC50 came to 220 nM in assay [2] and 0.34 µM in assay [3]. Also, in the assay listed under Rattus norvegicus, the EC50 came out at 21 µM.
For `CCCCc1c(O)noc1CC(N)C(=O)O` (stereo unspecified), the figures for the ED50 in the assay with Mus musculus [1] and in the assay with Mus musculus [4] were 94 µmol/kg and 110 µmol/kg, respectively. Moreover, the IC50 is 630 nM in assay [2] and 1.8 µM in assay [3]. The molecule further came in with an EC50 in the assay listed under Rattus norvegicus of 37 µM.
`NC(Cc1onc(O)c1Br)C(=O)O` (stereo unspecified): the IC50 in assay [2] was determined as 200 nM; in assay [3] it was 0.6 µM. In addition, the EC50 in the assay filed under Rattus norvegicus was found to be 23 µM.
In the assay with Mus musculus [1], `CCCCc1c(O)noc1C[C@H](N)C(=O)O` came in with an ED50 of 44 µmol/kg. Besides, the IC50 in assay [2] is 640 nM; in assay [3], 0.48 µM. Moreover, in the assay listed under Rattus norvegicus, the EC50 came out at 17 µM.
